# Measurements published in patent publication US20170107180A1, “GLYCOSIDASE INHIBITORS AND USES THEREOF” (Alectos Therapeutics Inc., priority 2012, published 2017).
# Counter-ions that a name gives are not always drawn.
# Biological target: T1, human O-GlcNAcase (Homo sapiens, UniProt O60502)
# T1 sequence (O60502 1-916): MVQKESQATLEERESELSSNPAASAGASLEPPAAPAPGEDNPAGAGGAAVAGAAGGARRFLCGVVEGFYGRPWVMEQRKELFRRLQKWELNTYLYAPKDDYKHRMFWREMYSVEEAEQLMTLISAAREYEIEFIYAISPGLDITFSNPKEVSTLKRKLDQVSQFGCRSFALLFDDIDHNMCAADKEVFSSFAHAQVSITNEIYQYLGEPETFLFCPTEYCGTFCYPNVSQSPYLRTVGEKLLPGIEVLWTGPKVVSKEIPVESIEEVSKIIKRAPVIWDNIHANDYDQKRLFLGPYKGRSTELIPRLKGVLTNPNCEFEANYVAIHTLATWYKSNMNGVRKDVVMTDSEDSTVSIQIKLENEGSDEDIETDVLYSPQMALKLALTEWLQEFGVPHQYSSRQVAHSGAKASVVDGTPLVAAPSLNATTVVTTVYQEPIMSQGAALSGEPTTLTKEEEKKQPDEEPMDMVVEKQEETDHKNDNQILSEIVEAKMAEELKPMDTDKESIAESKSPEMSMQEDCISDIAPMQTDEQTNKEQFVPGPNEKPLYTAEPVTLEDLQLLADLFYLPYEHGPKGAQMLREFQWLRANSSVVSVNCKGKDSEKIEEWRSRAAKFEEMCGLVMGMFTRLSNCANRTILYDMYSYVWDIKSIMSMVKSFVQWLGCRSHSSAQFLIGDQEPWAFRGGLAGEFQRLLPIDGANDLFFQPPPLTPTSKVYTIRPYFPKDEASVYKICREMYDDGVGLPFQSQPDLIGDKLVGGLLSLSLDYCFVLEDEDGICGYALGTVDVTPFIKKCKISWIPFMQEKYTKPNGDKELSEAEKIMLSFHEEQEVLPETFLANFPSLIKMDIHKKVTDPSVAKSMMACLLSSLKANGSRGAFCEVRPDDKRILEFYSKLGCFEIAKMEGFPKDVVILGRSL
# Assay: Determination of KI values for inhibition of O-GlcNAcase activity (fluorescence-based hOGA Ki)
# Format: biochemical
# Settings: purified human O-GlcNAcase 0.7 nM, 2 mM 4-Methylumbelliferyl N-acetyl-β-D-glucosaminide, pH 7.0, Cheng-Prusoff
# Description: Experimental procedure for kinetic analyses: Enzymatic reactions were carried out in a reaction containing 50 mM NaH2PO4, 100 mM NaCl and 0.1% BSA (pH 7.0) using 2 mM 4-Methylumbelliferyl N-acetyl-β-D-glucosaminide dihydrate (Sigma M2133) dissolved in ddH2O, as a substrate. The amount of purified human O-GlcNAcase enzyme used in the reaction was 0.7 nM. Test compound of varying concentrations was added to the enzyme prior to initiation of the reaction. The reaction was performed at room temperature in a 96-well plate and was initiated with the addition of substrate. The production of fluorescent product was measured every 60 sec for 45 min with a Tecan Infinite M200 plate-reader with excitation at 355 nm and emission detected at […], with 4-Methylumbelliferone (Sigma M1381) used to produce a standard curve. The slope of product production was determined for each concentration of compound tested and plotted, using standard curve fitting algorithms for sigmoidal dose response curves. The values for a four parameter logistic curve fit of the data were determined.
# KI values were determined using the Cheng-Prusoff equation; the Km of O-GlcNAcase for substrate was 0.2 mM.
row,Structure (SMILES),Ki
1,"CNC(=O)[C@@H]1[C@@H](O)[C@@H](O)[C@H](O)[C@@H](CO)N1C/C=C/c1ccc(-c2ccccc2)cc1 [Example 2, (2S,3R,4S,5R,6R)-1-((E)-3-([1,1′-biphenyl]-4-yl)allyl)-3,4,5-trihydroxy-6-(hydroxymethyl)-N-methylpiperidine-2-carboxamide]",1.81 µM
2,"CCNC(=O)[C@@H]1[C@@H](O)[C@@H](O)[C@H](O)[C@@H](CO)N1CCCc1ccccc1 [Example 6, (2S,3R,4S,5R,6R)-N-ethyl-3,4,5-trihydroxy-6-(hydroxymethyl)-1-(3-phenylpropyl)piperidine-2-carboxamide]",2.5 µM
3,"CNC(=O)[C@@H]1[C@@H](O)[C@@H](O)[C@H](O)[C@@H](CO)N1CCCc1ccccc1 [Example 5, (2S,3R,4S,5R,6R)-3,4,5-trihydroxy-6-(hydroxymethyl)-N-methyl-1-(3-phenylpropyl)piperidine-2-carboxamide]",1.7 µM
4,"CCNC(=O)[C@H]1N[C@H](CO)[C@@H](O)[C@H](O)[C@@H]1O [Example 4, (2S,3R,4S,5R,6R)-N-ethyl-3,4,5-trihydroxy-6-(hydroxymethyl)piperidine-2-carboxamide hydrochloride]",3.3 µM
5,"CNC(=O)[C@@H]1[C@@H](O)[C@@H](O)[C@H](O)[C@@H](CO)N1CCCCC(C)C [Example 8, (2S,3R,4S,5R,6R)-3,4,5-trihydroxy-6-(hydroxymethyl)-N-methyl-1-(5-methylhexyl)piperidine-2-carboxamide]",0.62 µM
6,"CNC(=O)[C@@H]1[C@@H](O)[C@@H](O)[C@H](O)[C@@H](CO)N1CCCc1ccc(-c2ccccc2)cc1 [Example 3, (2S,3R,4S,5R,6R)-1-(3-([1,1′-biphenyl]-4-yl)propyl)-3,4,5-trihydroxy-6-(hydroxymethyl)-N-methylpiperidine-2-carboxamide]",0.0094 µM

# Continued by falling Ki, values first:
row,Ki,Structure (SMILES)
1,1.47 µM,"CNC(=O)[C@@H]1[C@@H](O)[C@@H](O)[C@H](O)[C@@H](CO)N1C [Example 1, (2S,3R,4S,5R,6R)-3,4,5-trihydroxy-6-(hydroxymethyl)-N,1-dimethylpiperidine-2-carboxamide hydrochloride]"
2,0.252 µM,"CNC(=O)[C@@H]1[C@@H](O)[C@@H](O)[C@H](O)[C@@H](CO)N1CCCCc1ccccc1 [Example 7, (2S,3R,4S,5R,6R)-3,4,5-trihydroxy-6-(hydroxymethyl)-N-methyl-1-(4-phenylbutyl)piperidine-2-carboxamide]"
3,0.165 µM,"CNC(=O)[C@H]1N[C@H](CO)[C@@H](O)[C@H](O)[C@@H]1O [(2S,3R,4S,5R,6R)-3,4,5-trihydroxy-6-(hydroxymethyl)-N-methylpiperidine-2-carboxamide (hydrochloride salt), reference compound]"

# System: not listed separately
# Assay: Determination of apparent permeability (Papp), bi-directional transport in LLC-PK1 cells
# Format: in vitro ADME
# Settings: pig, test compound 1 μM, t=3 h, average of A to B and B to A
# Description: Bi-directional transport is evaluated in LLC-PK1 cells in order to determine apparent permeability (Papp). LLC-PK1 cells can form a tight monolayer and therefore can be used to assess vectorial transport of compounds from basolateral to apical (B→A) and from apical to basolateral (A→B).
# To determine Papp, LLC-PK1 cells are cultured in 96-well transwell culture plates (Millipore). Solutions containing the test compounds (1 μM) are prepared in Hank's Balanced Salt Solution with 10 mM HEPES. Substrate solution (150 μL) is added to either the apical (A) or the basolateral (B) compartment of the culture plate, and buffer (150 μL) is added to the compartment opposite to that containing the compound. At t=3 h, 50 μL samples are removed from both sides of monolayers dosed with test compound and placed in 96 well plates, scintillant (200 μL) or internal standard (100 μL labetolol 1 μM) is added to the samples and concentration is determined by liquid scintillation counting in a MicroBeta Wallac Trilux scintillation counter (Perkin Elmer Life Sciences, Boston, Mass.) or by LCMS/MS (Applied Biosystems SCIEX API 5000 triple quadruple mass spectrometer). [^3H]Verapamil (1 μM) is used as the positive control. The experiment is performed in triplicate.
# The apparent permeability, Papp, is calculated by the following formula for samples taken at t=3 h: […]
row,Structure (SMILES),"Papp at 3 h, 1 μM"
1,"CNC(=O)[C@@H]1[C@@H](O)[C@@H](O)[C@H](O)[C@@H](CO)N1CCCc1ccc(-c2ccccc2)cc1 [Example 3, (2S,3R,4S,5R,6R)-1-(3-([1,1′-biphenyl]-4-yl)propyl)-3,4,5-trihydroxy-6-(hydroxymethyl)-N-methylpiperidine-2-carboxamide]",3 ×10⁻⁶ cm/s
